In article PMC10892041, “Vanadium Complexes with Thioanilide Derivatives of Amino Acids: Inhibition of Human Phosphatases and Specificity in Various Cell Models of Metabolic Disturbances” (Pharmaceuticals, 2024):

Key:
adipocytes 3T3-L1 = experiment: Scintillation proximity assay, transport of [14C]-deoxy-D-glucose into adipocytes 3T3-L1; type: cell-based, mouse; conditions: 50 µM
Experimental: Adipocytes 3T3-L1 cell line (ATCC CRL-11605) derived from fibroblasts from mouse embryo tissue were cultured according to standard protocol in DMEM medium supplemented with 10% bovine calf serum, 100 IU/mL penicillin, and […] streptomycin at 37 °C in 5% CO2. Cells were seeded in 96-well poly-D-lysine-coated plates and cultured to reach confluency.
(§1) Scintillation proximity assay (SPA) is a method to measure the real-time accumulation of radiolabeled substrates by adherent cells with no filtration needed. Radioactivity concentrated closer to the scintillator embedded in the plastic bottom of each well provides a stronger signal than the radiolabeled substrate in the culture medium. Uptake of radiolabeled 2-deoxy-D-[U-14C]-glucose was conducted based on previous descriptions.
Adipocytes were washed and the medium was changed to the basal medium. After 24 h incubation, the tested complexes were added. After 2 h incubation at 37 °C in 5% CO2, the medium was changed to DMEM medium without glucose, with 0.1% BSA free from fatty acid, […] L-glutamine, and […] pyruvate. The tested complexes were added again, and further incubation for 4 h was conducted.
(§2) For cells proceeded as above, 2-deoxy-D-[U-14C]-glucose (250–350 mCi/mmol, NEC720A, PerkinElmer) solution in KRB with a total activity of 0.03 mCi was added to each well. […] Non-specific radioactivity was subtracted from each result (cpm). Two independent experiments with triplicates were conducted.

PP2A = PP2A (Homo sapiens, UniProt P67775); experiment: Inhibition of human recombinant non-tyrosine phosphatase PP2A (DiFMUP); type: biochemical
Sequence of PP2A (P67775 whole entry): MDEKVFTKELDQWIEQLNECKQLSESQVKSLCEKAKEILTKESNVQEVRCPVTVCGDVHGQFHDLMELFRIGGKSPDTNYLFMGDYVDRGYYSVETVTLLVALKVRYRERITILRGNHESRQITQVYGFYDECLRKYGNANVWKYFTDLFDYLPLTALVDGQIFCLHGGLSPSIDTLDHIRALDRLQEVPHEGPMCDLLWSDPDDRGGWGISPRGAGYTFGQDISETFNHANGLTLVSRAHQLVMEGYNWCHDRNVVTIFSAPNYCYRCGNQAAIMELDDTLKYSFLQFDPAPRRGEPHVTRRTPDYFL
Procedure, shortened: (§3)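 Compound pre-incubated 10 min with enzyme: PP2A at 0.5 U/mL in 50 mM Tris-HCl pH 7.0, 0.05% Tween-20, 125 µg/mL BSA with 0.1 mM DiFMUP; CDC25A at 400 ng/mL with 0.2 mM 3-O-methylfluorescein phosphate. Incubation 180 min at 23 °C; fluorescence (ex 355/em 560 nm) read, percent inhibition versus vehicle control, triplicate.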

hepatocytes HepG2 = experiment: Lipid accumulation in the cell model of NAFLD (oleic acid, AdipoRed); type: cell-based, human; conditions: 10 µM; 24 h
Experimental: The human hepatocyte HepG2 cell line (ATCC HB-8065) was cultured according to standard protocol in DMEM supplemented with 10% fetal bovine serum, 100 IU/mL penicillin, and […] streptomycin at 37 °C in 5% CO2. Cells were pleated on a 96-well microplate and were used at 18–24 h after seeding.
The induction of hepatic lipid accumulation and studies on the effect of vanadium complexes on this process were carried out based on previous descriptions. […] After 16–24 h, the standard medium was changed for DMEM with 0.1% BSA fatty acid free and 0.5 mM oleic acid as sodium salt and tested compounds were added. Cells were incubated for 24 h, and the intracellular lipid content was evaluated using AdipoRed Adipogenesis Assay Reagent (Lonza) according to the manufacturer’s protocol. Hepatocytes were washed with PBS with calcium and magnesium, and 5 µL AdipoRed Reagent in 200 µL PBS was added, with the mixture incubated for 10 min at 22 °C. Fluorescence signal proportional to lipid content in cells was measured at excitation in 530 nm and emission in 550 nm using a multimodal microplate reader POLARStar Omega (BMG Labtech). The results were normalized to the untreated control (cells with solvent only), wherein the intensity of fluorescence was taken as 100%.

CDC25A = target: T1, CDC25A (Homo sapiens, UniProt P30304); experiment: Inhibition of human recombinant non-tyrosine phosphatase CDC25A (3-O-methylfluorescein phosphate); type: biochemical
T1 construct: purchased Sigma-Aldrich
T1 sequence (P30304 1-524): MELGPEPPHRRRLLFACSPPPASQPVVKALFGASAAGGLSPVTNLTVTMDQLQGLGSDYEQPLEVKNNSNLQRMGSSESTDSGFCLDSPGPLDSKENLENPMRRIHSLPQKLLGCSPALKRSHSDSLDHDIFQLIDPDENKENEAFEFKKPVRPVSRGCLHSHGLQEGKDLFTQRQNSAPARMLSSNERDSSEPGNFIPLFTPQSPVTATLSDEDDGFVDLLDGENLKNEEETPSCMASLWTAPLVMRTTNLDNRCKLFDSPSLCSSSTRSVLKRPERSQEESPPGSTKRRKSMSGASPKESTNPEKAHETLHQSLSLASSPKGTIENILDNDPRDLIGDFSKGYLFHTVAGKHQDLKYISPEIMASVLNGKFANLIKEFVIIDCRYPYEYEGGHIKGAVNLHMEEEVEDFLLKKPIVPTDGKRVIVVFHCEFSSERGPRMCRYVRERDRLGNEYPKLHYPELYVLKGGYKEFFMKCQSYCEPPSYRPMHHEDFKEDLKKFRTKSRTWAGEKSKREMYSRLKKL
Procedure, shortened: as §3

myocytes C2C12 = experiment: Scintillation proximity assay, transport of [14C]-deoxy-D-glucose into myocytes C2C12; type: cell-based, mouse; conditions: 50 µM; control solvent only
Experimental: The myocyte C2C12 cell line (ATCC CRL-1772), a subclone of myoblasts from mouse muscles, was cultured according to standard protocol in DMEM supplemented with 10% fetal calf serum, 100 IU/ml penicillin, and […] streptomycin at 37 °C in 5% CO2. Cells were pleated on a 96-well microplate and after reach confluence were differentiated in medium with 2% horse serum. Differentiation medium was changed every 72 h.
as §1
After 24 h incubation, the tested complexes were added. After 2 h incubation at 37 °C in 5% CO2, the medium was changed to low-glucose medium (1000 mg/L), and the tested complexes were added again, with further incubation for 4 h being conducted.
as §2

Row | Compound | Transport of [14C]-deoxy-D-glucose into 3T3-L1 adipocytes, % of control (adipocytes 3T3-L1) | Inhibition of PP2A, percentage inhibition of control ± SD (PP2A; 1 µM) | Inhibition of PP2A, percentage inhibition of control ± SD (PP2A; 10 µM) | Lipid accumulation in hepatocytes after steatosis induction with oleic acid, % of control (hepatocytes HepG2) | Inhibition of CDC25A, percentage inhibition of control ± SD (CDC25A; 1 µM) | Inhibition of CDC25A, percentage inhibition of control ± SD (CDC25A; 10 µM) | Transport of [14C]-deoxy-D-glucose into C2C12 myocytes, % of the control (myocytes C2C12)
1 | O=S(=O)([O-])[O-].[O]=[V+2] [VOSO4, reference compound] | low activity | 32 ± 2% | 40 ± 3% | did not have any significant effect | 54 ± 2% | 62 ± 1% | 110 % of control
2 | Cc1occc(=O)c1[O-].Cc1occc(=O)c1[O-].[O]=[V+2] [BMOV, bis(maltolato)oxidovanadium(IV), reference compound] | low activity | 52 ± 15% | 63 ± 4% | did not have any significant effect | 54 ± 1% | 61 ± 1% | 125 % of control
